Reference: US20140179726A1, “GUT MICROFLORA AS BIOMARKERS FOR THE PROGNOSIS OF CIRRHOSIS AND BRAIN DYSFUNCTION” (priority 2011, published 2014)

Test system: mucosal microbiome
Experiment: Colonic mucosal microbiome by MTPS, compared using Metastats (Example 2)
Type: in vivo, human
Conditions: colonic mucosa, HE patients
Experimental: Interrogation of the Microbiome: Stool was collected and DNA extracted for microbiome analysis using published techniques (30). A subset underwent an un-sedated, unprepared flexible sigmoidoscopy during which a pinch biopsy of the recto-sigmoid mucosa was obtained, which was snap-frozen and stored at −80° C. till the analysis. We first use Length Heterogeneity PCR (LH-PCR) fingerprinting of the 16S rRNA to rapidly survey samples and standardize the community amplification. We then interrogated the microbial taxa associated with the gut fecal microbiome using Multitag Pyrosequencing (MTPS) (16). This technique allows for rapid sequencing of multiple samples at one time yielding thousands of sequence reads per sample.
Microbiome Community Fingerprinting: LH-PCR was done to standardize the community analysis as previously published. Briefly, total genomic DNA was extracted from tissue using Bio101 kit from MP Biomedicals Inc., Montreal, Quebec as per the manufacturer's instructions. About 10 ng of extracted DNA was amplified by PCR using a fluorescently labeled forward primer 27F (5′-(6FAM) AGAGTTTGATCCTGGCTCA G-3′, SEQ ID NO: 1) and unlabeled reverse primer 355R′ (5′-GCTGCCTCCCGTAGGAGT-3′, SEQ ID NO: 2). Both primers are universal primers for Bacteria (23). The LH-PCR products were diluted according to their intensity on agarose gel electrophoresis and mixed with ILS-600 size standards (Promega) and HiDi Formamide (Applied Biosystems, Foster City, Calif.). The diluted samples were then separated on a ABI 3130x1 fluorescent capillary sequencer (Applied Biosystems, Foster City, Calif.) and processed using the Genemapper™ software package (Applied Biosystems, Foster City, Calif.). Normalized peak areas were calculated using a custom PERL script and operational taxonomic units (OTUs) constituting less than 1% of the total community from each sample were eliminated from the analysis to remove the variable low abundance components within the communities.
MTPS: We employed the MTPS process to characterize the microbiome from the fecal and biopsy samples. Specifically, we have generated a set of 96 emulsion PCR fusion primers that contain the 454 emulsion PCR linkers on the 27F and 355R primers and a different 8 base “barcode” between the A adapter and 27F primer. Thus, each fecal sample was amplified with unique bar-coded forward 16S rRNA primers and then up to 96 samples were pooled and subjected to emulsion PCR and pyrosequenced using a GS-FLX pyrosequencer (Roche). Data from each pooled sample were “deconvoluted” by sorting the sequences into bins based on the barcodes using custom PERL scripts. Thus, we were able to normalize each sample by the total number of reads from each barcode. We have noted that ligating tagged primers to PCR amplicons distorts the abundances of the communities and thus it is critical to incorporate the tags during the original amplification step.
Microbiome Community Analysis: We identified the taxa present in each sample using the Bayesian analysis tool in Version 10 of the Ribosomal Database Project (RDP10). […] We chose this cutoff because of our a priori assumption that genera present in <1% of the community vary between individuals and have minimal contribution to the functionality of that community and 2,000 reads per sample will only reliably identify community components that are greater than 1% in abundance (16). […]

SMILES: OC[C@H]1O[C@@H](O[C@@H]2[C@@H](CO)OC(O)(CO)[C@H]2O)[C@H](O)[C@@H](O)[C@H]1O (mixture of isomers) [lactulose]
- Lachnospiraceae_Roseburia (p 0.005): 1.9 % abundance
- Incertae Sedis XIV_Blautia (p 0.008): 4.2 % abundance
- Propionibacteriaceae_Propionibacterium (p 0.03): 1.1 % abundance
- Rikenellaceae_Alistipes (p 0.03): 1.8 % abundance
- Veillonellaceae_Other (p 0.03): 1.1 % abundance
